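How tested: cells in 96-well plates exposed to compound for 48 hours at five concentrations. Abbreviation: GI50, concentration required for 50% inhibition of growth. TGI denotes the concentration required for complete inhibition of growth.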
What was measured:
Assay in all cases: growth of human tumour cells (NCI), 48 h
MDA-MB-231 breast = system: MDA-MB-231 breast
SK-OV-3 ovarian = system: SK-OV-3 ovarian
NCI-H23 lung = system: NCI-H23 lung
KM12 colon = system: KM12 colon
MDA-MB-435 = system: MDA-MB-435
CAKI-1 renal = system: CAKI-1 renal
786-0 renal = system: 786-0 renal
OVCAR-5 ovarian = system: OVCAR-5 ovarian
HOP-92 NSCLC = system: HOP-92 NSCLC
SNB-19 CNS = system: SNB-19 CNS
SK-MEL-5 melanoma = system: SK-MEL-5 melanoma
U251 CNS = system: U251 CNS
HCT-116 colon = system: HCT-116 colon
A498 renal = system: A498 renal
SN12C renal = system: SN12C renal
UO-31 renal = system: UO-31 renal
SF-539 CNS = system: SF-539 CNS
UACC-257 melanoma = system: UACC-257 melanoma
A549 NSCLC = system: A549 NSCLC
HS 578T breast = system: HS 578T breast
LOX IMVI melanoma = system: LOX IMVI melanoma
NCI-H226 lung = system: NCI-H226 lung
RXF 393 renal = system: RXF 393 renal
HL-60(TB) leukemia = system: HL-60(TB) leukemia
TK-10 renal = system: TK-10 renal
EKVX NSCLC = system: EKVX NSCLC
MOLT-4 leukemia = system: MOLT-4 leukemia
OVCAR-3 ovarian = system: OVCAR-3 ovarian
M14 melanoma = system: M14 melanoma
SW-620 colon = system: SW-620 colon
SF-295 CNS = system: SF-295 CNS
HOP-62 NSCLC = system: HOP-62 NSCLC
PC-3 prostate = system: PC-3 prostate
HT29 colon = system: HT29 colon
NCI-H522 lung = system: NCI-H522 lung
COLO 205 colon = system: COLO 205 colon
SF-268 CNS = system: SF-268 CNS
K-562 leukemia = system: K-562 leukemia
OVCAR-8 ovarian = system: OVCAR-8 ovarian
IGROV1 ovarian = system: IGROV1 ovarian
SK-MEL-28 melanoma = system: SK-MEL-28 melanoma
ACHN renal = system: ACHN renal
T-47D breast = system: T-47D breast
MCF7 breast = system: MCF7 breast
MALME-3M melanoma = system: MALME-3M melanoma
HCT-15 colon = system: HCT-15 colon
BT-549 breast = system: BT-549 breast
NCI/ADR-RES ovarian = system: NCI/ADR-RES ovarian
CCRF-CEM leukemia = system: CCRF-CEM leukemia
UACC-62 melanoma = system: UACC-62 melanoma
DU-145 prostate = system: DU-145 prostate
OVCAR-4 ovarian = system: OVCAR-4 ovarian
NCI-H460 lung = system: NCI-H460 lung

Structure (SMILES): COc1cc(/C=C2\CC3C4CCC5=CC(=O)CC[C@]5(C)C4CC[C@]3(C)C2=O)ccc1OCCCn1ccnc1 (stereo partly specified)
- GI50 (MDA-MB-231 breast): 5.04 µM
- TGI (MDA-MB-231 breast): 21 µM
- GI50 (SK-OV-3 ovarian): 15.7 µM
- TGI (SK-OV-3 ovarian): 30.2 µM
- GI50 (NCI-H23 lung): 2220 nM
- TGI (NCI-H23 lung): 4.43 µM
- GI50 (KM12 colon): 3.75 µM
- TGI (KM12 colon): 20 µM
- GI50 (MDA-MB-435): 5.04 µM
- TGI (MDA-MB-435): 25.6 µM
- GI50 (CAKI-1 renal): 8.97 µM
- TGI (CAKI-1 renal): 26.9 µM
- GI50 (786-0 renal): 11.6 µM
- TGI (786-0 renal): 23.8 µM
- GI50 (OVCAR-5 ovarian): 18.6 µM
- TGI (OVCAR-5 ovarian): 37.9 µM
- GI50 (HOP-92 NSCLC): 6.22 µM
- TGI (HOP-92 NSCLC): 22.8 µM
- GI50 (SNB-19 CNS): 21.6 µM
- TGI (SNB-19 CNS): > 100 µM
- GI50 (SK-MEL-5 melanoma): 2070 nM
- TGI (SK-MEL-5 melanoma): 7.1 µM
- GI50 (U251 CNS): 9.09 µM
- TGI (U251 CNS): 21.2 µM
- GI50 (HCT-116 colon): 2700 nM
- TGI (HCT-116 colon): 13.1 µM
- GI50 (A498 renal): 11.6 µM
- TGI (A498 renal): 23.9 µM
- GI50 (SN12C renal): 1760 nM
- TGI (SN12C renal): 8.5 µM
- GI50 (UO-31 renal): 4.36 µM
- TGI (UO-31 renal): 16.2 µM
- GI50 (SF-539 CNS): 7.21 µM
- TGI (SF-539 CNS): 21.7 µM
- GI50 (UACC-257 melanoma): 2100 nM
- TGI (UACC-257 melanoma): 7.47 µM
- GI50 (A549 NSCLC): 5.32 µM
- TGI (A549 NSCLC): 21.7 µM
- GI50 (HS 578T breast): 8.45 µM
- TGI (HS 578T breast): 29.8 µM
- GI50 (LOX IMVI melanoma): 3.75 µM
- TGI (LOX IMVI melanoma): 14.4 µM
- GI50 (NCI-H226 lung): 11.2 µM
- TGI (NCI-H226 lung): 27.5 µM
- GI50 (RXF 393 renal): 96.9 nM
- TGI (RXF 393 renal): 6.94 µM
- GI50 (HL-60(TB) leukemia): 2860 nM
- TGI (HL-60(TB) leukemia): 10.2 µM
- GI50 (TK-10 renal): 15.1 µM
- TGI (TK-10 renal): 31.2 µM
- GI50 (EKVX NSCLC): 17.6 µM
- TGI (EKVX NSCLC): 45 µM
- GI50 (MOLT-4 leukemia): 4.09 µM
- TGI (MOLT-4 leukemia): 18.9 µM
- GI50 (OVCAR-3 ovarian): 5.17 µM
- TGI (OVCAR-3 ovarian): 19.4 µM
- GI50 (M14 melanoma): 5.87 µM
- TGI (M14 melanoma): 23.7 µM
- GI50 (SW-620 colon): 8.23 µM
- TGI (SW-620 colon): 23.1 µM
- GI50 (SF-295 CNS): 2470 nM
- TGI (SF-295 CNS): 7.41 µM
- GI50 (HOP-62 NSCLC): 11.8 µM
- TGI (HOP-62 NSCLC): 25.2 µM
- GI50 (PC-3 prostate): 4.1 µM
- TGI (PC-3 prostate): 20.2 µM
- GI50 (HT29 colon): 794 nM
- TGI (HT29 colon): 11.6 µM
- GI50 (NCI-H522 lung): 3.8 µM
- TGI (NCI-H522 lung): 16.1 µM
- GI50 (COLO 205 colon): 4.52 µM
- TGI (COLO 205 colon): 22.7 µM
- GI50 (SF-268 CNS): 13.6 µM
- TGI (SF-268 CNS): 34.4 µM
- GI50 (K-562 leukemia): 2690 nM
- TGI (K-562 leukemia): 12.9 µM
- GI50 (OVCAR-8 ovarian): 5.93 µM
- TGI (OVCAR-8 ovarian): 22.1 µM
- GI50 (IGROV1 ovarian): 9.13 µM
- TGI (IGROV1 ovarian): 29.5 µM
- GI50 (SK-MEL-28 melanoma): 6.55 µM
- TGI (SK-MEL-28 melanoma): 25.9 µM
- GI50 (ACHN renal): 10.2 µM
- TGI (ACHN renal): 21.8 µM
- GI50 (T-47D breast): 5.23 µM
- TGI (T-47D breast): 19 µM
- GI50 (MCF7 breast): 4.02 µM
- TGI (MCF7 breast): 19.9 µM
- GI50 (MALME-3M melanoma): 3.11 µM
- TGI (MALME-3M melanoma): 13.5 µM
- GI50 (HCT-15 colon): 4.03 µM
- TGI (HCT-15 colon): 16.2 µM
- GI50 (BT-549 breast): 4.45 µM
- TGI (BT-549 breast): 33.4 µM
- GI50 (NCI/ADR-RES ovarian): 4.51 µM
- TGI (NCI/ADR-RES ovarian): 18.5 µM
- GI50 (CCRF-CEM leukemia): 3.35 µM
- TGI (CCRF-CEM leukemia): 10 µM
- GI50 (UACC-62 melanoma): 5.18 µM
- TGI (UACC-62 melanoma): 24.9 µM
- GI50 (DU-145 prostate): 11.8 µM
- TGI (DU-145 prostate): 24.1 µM
- GI50 (OVCAR-4 ovarian): 12.4 µM
- TGI (OVCAR-4 ovarian): > 100 µM
- GI50 (NCI-H460 lung): 4.68 µM
- TGI (NCI-H460 lung): 24.5 µM
